Data from patent US4327224A, “α-[(alkylamino)alkyl]-4-hydroxy-3-(alkylthio)benzenemethanols, derivatives thereof and intermediates therefor” (Sterling Drug Inc., priority 1976, dated 1982).
Structures can show the parent of a compound that is named as a salt.

Assays:
β-adrenergic [1] = assay: Inhibition of isoproterenol-induced heart rate elevation in the pentobarbitalized dog (β-adrenergic blocking activity); assay type: in vivo; settings: test compound 1.0 mg/kg, isoproterenol intravenous
[2] = tested on: respiratory smooth muscle; assay: Inhibition of histamine-induced bronchoconstriction in the dog (β-adrenergic stimulant activity); assay type: in vivo; settings: 100-200 mcg/kg, over a period of 2 hours
cardiac muscle = assay: Increase in heart rate (β-adrenergic stimulant activity); assay type: in vivo; settings: dog; 100-200 mcg/kg
systolic blood pressure = assay: Reduction in systolic blood pressure in the unanesthetized spontaneous hypertensive rat (antihypertensive activity); assay type: in vivo; settings: single oral medication
Method: Antihypertensive activity was determined on the basis of the observed reduction in systolic blood pressure measured according to the method of H. Kersten et al., J. Lab. and Clin. Med. 32, 1090 (1947) following a single oral medication in the unanesthetized spontaneous hypertensive rat described by Okamato et al., Japan Circulation J. 27, 282 (1963).

[3] = tested on: hind limb vasculature of the anesthetized dog; isolated rabbit ear artery; assay: Reduction in perfusion pressure in hind limb vasculature of the anesthetized dog and in the isolated rabbit ear artery (vasodilator activity); assay type: in vivo
Text: 17, 357 (1972), and also on the basis of percent reduction in perfusion pressure as measured in the isolated rabbit ear artery according to the method described by De La Lande et al. Aust. J. Exp. Biol. Med. Sci. 43, 639 (1965).

β-adrenergic [4] = settings: Kaiser et al. 1975; cited from earlier work
β-adrenergic [5] = settings: Kaiser et al. 1975; cited from earlier work; remark: listed apart in the source

CSc1cc(C(O)CNC(C)(C)C)ccc1OC(C)=O (stereo not drawn) [Example 3, α-[(tert-butylamino)methyl]-4-hydroxy-3-(methylthio)benzenemethanol 4-acetate hydrochloride]
% Inhibition of Heart Rate Elevation (β-adrenergic [1]): 50% | inhibition of the histamine-induced bronchoconstriction [2]: 50% | increase in heart rate (β-adrenergic stimulant activity) (cardiac muscle): increase in heart rate | antihypertensive activity (reduction in systolic blood pressure) (systolic blood pressure): antihypertensive | vasodilator activity (reduction in perfusion pressure) [3]: vasodilator activity

C[S+]([O-])c1cc(C(O)CNC(C)(C)C)ccc1O (stereo not drawn) [Example 4, α-[(t-butylamino)methyl]-4-hydroxy-3-(methylsulfinyl)benzenemethanolmethanesulfonate]
% Inhibition of Heart Rate Elevation (β-adrenergic [1]): 100% | inhibition of the histamine-induced bronchoconstriction [2]: 50% | increase in heart rate (β-adrenergic stimulant activity) (cardiac muscle): increase in heart rate | antihypertensive activity (reduction in systolic blood pressure) (systolic blood pressure): antihypertensive | vasodilator activity (reduction in perfusion pressure) [3]: vasodilator activity

CC(C)(C)NCC(O)c1ccc(O)c(S(C)(=O)=O)c1 (stereo not drawn) [Example 6, α-[(t-butylamino)methyl]-4-hydroxy-3-(methylsulfonyl)benzenemethanolmethanesulfonate]
% Inhibition of Heart Rate Elevation (β-adrenergic [1]): 87%

CC(C)(C)NCC(O)c1ccc(O)c(S(C)(=O)=O)c1 (stereo not shown) [drawing 3]
β-adrenergic agonist activity (β-adrenergic [4]): weakly active | β-adrenergic antagonistic activity (β-adrenergic [5]): exhibits β-adrenergic antagonistic activity
